The source of these data is patent US12024494B2, “Salt of LSD1 inhibitor and a polymorph thereof” (CSPC ZHONGQI PHARMACEUTICAL TECHNOLOGY (SHIJIAZHUANG) CO., …, priority 2018, dated 2024).

A short description of data set [1]: Solvent stability of the crystal form (suspension, 40° C., 2 days). Type of data set: physicochemical. The following applies: for Crystal form: 40° C., 2 days. The method, then:
Appropriate amounts of the compound III were weighed and added to different glass vials, and added respectively with appropriate amount of a solvent or a solvent mixture to prepare a suspension. After added with a magnet rotor and placed at room temperature, the above samples were placed on a constant temperature mixer (40° C.) to be shaken for 2 days (avoid from light). In order to ensure that the sample was as suspended as possible, the amount of the compound and the solvent would be adjusted according to the test phenomenon and even the container used in the experiment may be changed during the experiment. (The dissolved sample was evaporated naturally to dryness).

The subject of data set [2] is human small cell lung cancer NCI-H1417 cell subcutaneous xenograft tumor. Description: In vivo efficacy on NCI-H1417 subcutaneous xenograft tumor in CB-17 SCID mouse. Conditions: for TGI (%) (Day 35) / Tumor volume (mm^3) (Day 35): PO, QD. The method, then: Week age and weight: 6-8 weeks old, weight: 16-21 grams
Human small cell lung cancer NCI-H1417 cells were cultured in a monolayer in vitro with RPMI-1640 medium plus 10% fetal bovine serum, at 37° C. and 5% CO2 to culture and passage. When the cell saturation was 80%-90%, the cells were collected by trypsin-EDTA digestion, counted, adjusted to 10×10^7 cells/mL and resuspended in PBS.
0.2 mL (10×10^6 cells) of NCI-H1417 cells (with Matrigel, volume ratio 1:1) were subcutaneously inoculated on the right back of each mouse. When the average tumor volume reached about 100-150 mm^3, the mice were grouped randomly and started to be administered.
The experimental vehicle was a 0.5% methyl cellulose solution. 5 g of methyl cellulose was weighed, dissolved in 800 mL of ultrapure water, stirred evenly and brought to the volume of 1000 mL with ultrapure water. The test substance was dissolved in the vehicle, prepared into a uniform solution of a certain concentration, and stored at 4° C.
The experimental indicator was to investigate whether the tumor growth was inhibited, delayed or cured. The tumor diameter was measured with a vernier caliper twice a week. The tumor volume is calculated by the formula of V=0.5a×b^2, where a and b represent the long diameter and short diameter of the tumor, respectively.
TGI (%) is used for the anti-tumor efficacy of the compound. TGI (%) reflects the tumor growth inhibition rate. TGI (%)=[(1−(Average tumor volume at the end of the administration of a certain treatment group−average tumor volume at the beginning of the administration of the treatment group))/(Average tumor volume at the end of treatment in the vehicle control group−Average tumor volume at the beginning of the treatment in the vehicle control group)]×100%. Vehicle control group: Vehicle (0.5% methylcellulose solution).

A short description of data set [3]: Hygroscopicity by dynamic vapor adsorption (DVS). The following applies: 25° C. and 80% RH. Type of data set: physicochemical. The method, then:
Instrument model: SMS DVS Advantage dynamic vapor adsorption instrument Test conditions: a sample (10˜15 mg) was taken and placed in the DVS sample pan for testing.
Balance: dm/dt=0.01%/min (shortest: 10 min, longest: 180 min)
drying: drying at 0% RH for 120 min
RH (%) test step range: 0%-90%-0%
Experimental Materials: SMS DVS Advantage dynamic vapor adsorption instrument

Data set [4] is described as follows: Solid stability of the crystal form (XRPD) under high temperature, high humidity and light. It is filed as physicochemical. The method, then:
For the samples placed under the conditions of high temperature (60° C.) and high humidity (relative humidity of 92.5% RH), the bottle opening was sealed with an aluminum foil, and some small holes were pierced in the aluminum foil to ensure that the sample can be sufficiently in contact with ambient air, and the samples were placed in the corresponding constant temperature and humidity ovens. The sample exposed to light (open, not covered with aluminum foil) and the control sample (the entire sample bottle was covered with aluminum foil) were placed in a light box. At each time point, 2 samples were weighed as formal test samples. […] The sample bottles were wrapped with an aluminum foil, and the aluminum foil was pierced with small holes. They were also placed in the corresponding constant temperature and humidity ovens. The sample was taken and detected (by XRPD) at the 5th day and 10th day, and the detection results were compared with the initial detection result at 0 day.

Data set [5] addresses LSD1 (Homo sapiens (Human), UniProt O60341). Kind of data set: LSD1 inhibition, enzyme fluorescent conjugated method. Conditions: 10 concentrations, initial 10 μM, 3-fold dilution, read-out: IC50 (nM) Mean ± standard deviation. It is filed as biochemical. The method, then:
The experiment was conducted in duplicate with an initial concentration of 10 μM diluted in a gradient of 3 times, and it was repeated twice at different dates.
LSD1 buffer composition: 50 mM Tris-HCl, pH 7.5, 0.05% CHAPS, 1% DMSO.
Reaction time: reacted at room temperature for 1 hour
1.2.1 Adding enzyme to a freshly prepared buffer
1.2.2 Adding a DMSO solution of the compound to the enzyme mixture using Acoustic Technology (Echo 550, LabCyte Inc. Sunnyvale, CA) at nL level, and incubating at room temperature for 30 minutes
1.2.3 Adding the substrate to a freshly prepared buffer
1.2.4 Incubating at room temperature for 1 hour
1.2.5 Preparing to test the mixture
1.2.6 Using Perkin Elmer Envision to read data
1.2.7 Using Excel and GraphPad Prism software to analyze data

In the case of `N[C@H]1CC[C@H](c2nc(C3(CN[C@@H]4C[C@H]4c4ccccc4)CC3)no2)CC1` [Crystal form A of Compound III], the Crystal form result is listed as “Crystal form A” in data set [1] (Acetonitrile); “Crystal form A” in data set [1] (Isopropanol); “Crystal form A” in data set [1] (Isopropyl acetate); “Crystal form A” in data set [1] (Methanol, dissolved, and then precipitated); “Crystal form A” in data set [1] (Tetrahydrofuran); “Crystal Form A” in data set [4] (0 day (initial)). The Crystal form entry in data set [4] (High humidity (relative humidity 92.5%, open), 5th day) is on record as “Crystal Form A”; in data set [4] (High humidity (relative humidity 92.5%, open), 10th day) it was “Crystal Form A”; in data set [4] (High temperature (60° C., open), 5th day), “Crystal Form A”; in data set [4] (High temperature (60° C., open), 10th day) it was “Crystal Form A”; in data set [4] (Light (total illuminance = 1.2 × 10^6 Lux·hr/near ultraviolet = 200 w·hr/m^2, open), 5th day) it was “Crystal Form A”; in data set [4] (Light (total illuminance = 1.2 × 10^6 Lux·hr/near ultraviolet = 200 w·hr/m^2, open), 10th day), “Crystal Form A”. Also, the “Solvent stability (conclusion)” value in data set [1] (in the solvent) is given as “good stability”. For the same molecule, the “TGI (%) (Day 35)” value is listed as 81.9% in data set [2] (1 mg/kg), 99.2% in data set [2] (1.5 mg/kg) and 115.6% in data set [2] (3 mg/kg). Besides, the figures for the “Tumor volume (mm^3) (Day 35)” value in data set [2] (1 mg/kg), in data set [2] (1.5 mg/kg) and in data set [2] (3 mg/kg) were 178 ± 17 mm^3, 121 ± 15 mm^3 and 68 ± 13 mm^3, respectively. In addition, the “Anti-tumor effect (conclusion)” value in data set [2] (NCI-H1417 xenograft tumor model) is “excellent anti-tumor effect”. Besides, the Classification of hygroscopicity result in data set [3] is listed as “slightly hygroscopic”. Further, in data set [3], the “ΔW (moisture weight gain)” value is reported as 1.14%. For the same molecule, in data set [4] (high temperature, high humidity and strong light), the “Solid stability (conclusion)” value is listed as “good stability”. Moreover, the half-maximal inhibitory concentration (IC50) in data set [5] came out at 8 nM.

For orientation: IC50 means the concentration that inhibits the measured activity by half.
